Results published in patent publication US11708366B2, “Heteroaryl substituted spiropiperidinyl derivatives and pharmaceutical uses thereof” (Novartis AG, priority 2020, dated 2023).
Read-outs that look alike come from different tables or passages of the source.

Molecular target: LTC4S (Homo sapiens (Human), UniProt Q16873)
Assay: Human whole blood HTRF assay (LTC4 release after calcium ionophore A23187)
Assay type: cell-based
Conditions: calcium ionophore A23187 stimulation, LTC4 by HTRF
Description: B. Human Whole Blood HTRF Assay
LTC4 synthase catalyzes the conversion of Leukotriene A4 (LTA4) to Leukotriene C4 (LTC4) in the presence of reduced glutathione (GSH) as a co-substrate. For testing the inhibition of LTC4S, compounds are prepared for either eight-point or sixteen-point dose response studies in 384-well Labcyte low dead volume (LDV) plates. For eight-point dose response studies, compounds are diluted 1:5 starting at 1 μM concentration in 90% DMSO. […] Compounds are studied in duplicates. Ten wells are filled with 90% DMSO which correspond to the stimulated and unstimulated control wells. […] The morning of the assay, whole blood is collected from three human donors. Donors must be non-smokers and must not have taken NSAIDs within the 48 hours prior to blood collection. The amount of blood collected per donor depends on the amount of compounds to be tested and the dose response format in which they are to be studied (about 8 mL of whole blood for either 22 compounds in 8-point dose response format or 11 compounds in 16-point dose response format). […] 50 μL of diluted blood are then dispensed into each assay plate well with pre-dispensed compounds and DMSO for the stimulated and unstimulated controls using a Thermo Scientific™ Multidrop™ Combi reagent dispenser, and incubated at 37° C. for 4 hours. Calcium ionophore A23187 is used to induce a rapid increase in intracellular levels of Ca^2+. The Ca^2+ functions as a universal second messenger in various immune cells, such as T cells, B cells and mast cells, and is used to induce degranulation and release of eicosanoids, including LTC4, by cells contained in the whole blood samples. […] All but the unstimulated control wells are subsequently stimulated by dispensing 1 μL of the 0.5 mg/mL calcium ionophore suspension using the Thermo Scientific™ Multidrop™ Combi reagent dispenser. Plates are incubated for 15 minutes at 37° C. Plates are then centrifuged at 300 g for 10 minutes at room temperature to pellet blood cells and stop the reaction. […] Plates are sealed and stored at −80° C.
In order to measure the amount of LTC4 released by cells in the human blood samples during calcium ionophore stimulation, supernatants are analyzed using the Cisbio LTC4 homogeneous time-resolved FRET (HTRF) kit (Cisbio #64LC4PEH). […] Ten serially diluted standard curve solutions are also dispensed in duplicate into each plate as instructed in the protocol. Blank controls and cryptate control wells are also prepared. Then, 5 μL of anti-LTC4-d2 working solution are dispensed into all the wells, but the cryptate control wells. Subsequently, 5 μL of anti-LTC4-Eu3+ cryptate working solution are dispensed into all the wells. Plates are then covered with a lid and incubated at room temperature for one hour with gentle orbital shaking (˜450 rpm). […] HTRF ratios are calculated for each well by dividing the 665 nm intensity by the 620 nm intensity, and multiplying the resulting ratio by 10,000. LTC4 standard curves are interpolated for each plate and used to convert the HTRF ratio readouts into the amount of LTC4 present in each well (in ng/mL). Parametric curve fitting is used to obtain inhibition curves and IC50 values.

[1] = human whole blood diluted 1:3, 4 h incubation, read-out: human whole blood HTRF IC50
[2] = human whole blood HTRF IC50, human whole blood diluted 1:3, 4 h incubation

SMILES	IC50 [1]	IC50 [2]
O=C1CCCC2(CCN(c3cc(-n4cc(C(F)(F)F)cn4)nc(Cl)n3)CC2)N1c1ccc(F)c(F)c1 [Example 69, 9-(2-chloro-6-(4-(trifluoromethyl)-1H-pyrazol-1-yl)pyrimidin-4-yl)-1-(3,4-difluorophenyl)-1,9-diazaspiro[5.5]undecan-2-one]	35 nM	
O=C1CCCC2(CCN(c3cc(-n4cccn4)nc(N4CCOCC4)n3)CC2)N1c1ccc(F)c(F)c1 [Example 52, 1-(3,4-difluorophenyl)-9-(2-morpholino-6-(1H-pyrazol-1-yl)pyrimidin-4-yl)-1,9-diazaspiro[5.5]undecan-2-one]	29 nM	
O=C1CCCC2(CCN(c3cc(OC4COC4)nc(C(F)(F)F)n3)CC2)N1c1ccc(F)c(F)c1 [Example 61, 1-(3,4-difluorophenyl)-9-(6-(oxetan-3-yloxy)-2-(trifluoromethyl)pyrimidin-4-yl)-1,9-diazaspiro[5.5]undecan-2-one]	29 nM	
Nc1nc(OC2COCC2(F)F)cc(N2CCC3(CCCC(=O)N3c3ccc(F)c(F)c3)CC2)n1 (racemic) [Example 98, rac-9-(2-amino-6-((4,4-difluorotetrahydrofuran-3-yl)oxy)pyrimidin-4-yl)-1-(3,4-difluorophenyl)-1,9-diazaspiro[5.5]undecan-2-one]	3 nM	
O=C1CCCC2(CCN(c3cc(-n4cncn4)ncn3)CC2)N1c1ccc(F)c(F)c1 [Example 54, 9-(6-(1H-1,2,4-triazol-1-yl)pyrimidin-4-yl)-1-(3,4-difluorophenyl)-1,9-diazaspiro[5.5]undecan-2-one]	300 nM	
O=C1CCCC2(CCN(c3cnnc(N4CCC(O)(C(F)(F)F)CC4)c3)CC2)N1c1ccc(F)c(F)c1 [Example 42, 1-(3,4-difluorophenyl)-9-(6-(4-hydroxy-4-(trifluoromethyl)piperidin-1-yl)pyridazin-4-yl)-1,9-diazaspiro[5.5]undecan-2-one]	410 nM	
Nc1nc(O[C@@H]2CCCOC2)cc(N2CCC3(CCCC(=O)N3c3ccc(F)c(F)c3)CC2)n1 [Example 100, (R)-9-(2-amino-6-((tetrahydro-2H-pyran-3-yl)oxy)pyrimidin-4-yl)-1-(3,4-difluorophenyl)-1,9-diazaspiro[5.5]undecan-2-one]	2 nM	
CCOC(=O)c1nc(O[C@@H]2COC[C@H]2F)cc(N2CCC3(CCCC(=O)N3c3ccc(F)c(F)c3)CC2)n1 (racemic) [Example 111, rac ethyl 4-(1-(3,4-difluorophenyl)-2-oxo-1,9-diazaspiro[5.5]undecane-9-yl)-6-(((3S,4S)-4-fluorotetrahydrofuran-3-yl)oxy)pyrimidine-2-carboxylate]	17 nM	
C[C@H](Oc1cc(N2CCC3(CCOC(=O)N3c3ccc(F)c(F)c3)CC2)nc(N)n1)C(F)(F)F [Example 113b, (S)-9-(2-amino-6-((1,1,1-trifluoropropan-2-yl)oxy)pyrimidin-4-yl)-1-(3,4-difluorophenyl)-3-oxa-1,9-diazaspiro[5.5]undecan-2-one, or (R)-9-(2-amino-6-((1,1,1-trifluoropropan-2-yl)oxy)pyrimidin-4-yl)-1-(3,4-difluorophenyl)-3-oxa-1,9-diazaspiro[5.5]undecan-2-one]	36 nM	
O=C1CCCC2(CCN(c3nc(C4=CCC(F)(F)CC4)c[nH]c3=O)CC2)N1c1ccc(F)c(F)c1 [Example 18, 9-(6-(4,4-difluorocyclohex-1-en-1-yl)-3-oxo-3,4-dihydropyrazin-2-yl)-1-(3,4-difluorophenyl)-1,9-diazaspiro[5.5]undecane-2-one]	2 nM	
O=C1CC(F)CC2(CCN(c3cc(OC4CCOCC4)ncn3)CC2)N1c1ccc(F)c(F)c1 (racemic) [Example 118, rac-1-(3,4-difluorophenyl)-4-fluoro-9-(6-((tetrahydro-2H-pyran-4-yl)oxy)pyrimidin-4-yl)-1,9-diazaspiro[5.5]undecan-2-one]	8 nM	
CC(Oc1cc(N2CCC3(CCCC(=O)N3c3ccc(F)c(F)c3)CC2)nc(N)n1)C(F)(F)F (racemic) [Example 95, rac-9-(2-amino-6-((1,1,1-trifluoropropan-2-yl)oxy)pyrimidn-4-yl)-1-(3,4-difluorophienyl)-1,9-diazaspiro[5.5]undecan-2-one]	2 nM	
Cn1nc(-n2cc(C(F)(F)F)cn2)cc(N2CCC3(CCCC(=O)N3c3ccc(F)c(F)c3)CC2)c1=O [Example 14, 1-(3,4-difluorophenyl)-9-(2-methyl-3-oxo-6-(4-(trifluoromethyl)-1H-pyrazol-1-yl)-2,3-dihydropyridazin-4-yl)-1,9-diazaspiro[5.5]undecane-2-one]		1 nM
O=C1CCCC2(CCN(c3cc(-n4cnc(C(F)(F)F)c4)ncn3)CC2)N1c1ccc(F)c(F)c1 [Example 58, 1-(3,4-difluorophenyl)-9-(6-(4-(trifluoromethyl)-1H-imidazol-1-yl)pyrimidin-4-yl)-1,9-diazaspiro[5.5]undecan-2-one]	560 nM	
O=C1CCCC2(CCN(c3cc(OC4CCOCC4)n[nH]c3=O)CC2)N1c1ccc(F)c(F)c1 [Example 16, 1-(3,4-difluorophenyl)-9-(3-oxo-6-((tetrahydro-2H-pyran-4-yl)oxy)-2,3-dihydropyridazin-4-yl)-1,9-diazaspiro[5.5]undecan-2-one]		16 nM
Nc1nc(O[C@@H]2COC[C@H]2F)cc(N2CCC3(CCCC(=O)N3c3ccc(F)c(F)c3)CC2)n1 (racemic) [Example 102, rac-9-(2-amino-6-(((3R,4R)-4-fluorotetrahydrofuran-3-yl)oxy)pyrimidin-4-yl)-1-(3,4-difluorophenyl)-1,9-diazaspiro[5.5]undecan-2-one]	9 nM	
O=C1CCCC2(CCN(c3cc(-c4ccc(F)cc4)n[nH]c3=O)CC2)N1c1ccc(F)c(F)c1 [Example 11, 1-(3,4-difluorophenyl)-9-(6-(4-fluorophenyl)-3-oxo-2,3-dihydropyridazin-4-yl)-1,9-diazaspiro[5.5]undecane-2-one]	6 nM	
CC(C)Oc1cc(N2CCC3(CCCC(=O)N3c3ccc(F)c(F)c3)CC2)nc(N)n1 [Example 93, 9-(2-amino-6-isopropoxypyrirnidin-4-yl)-1-(3,4-difluorophenyl)-1,9-diazaspiro[5.5]undecan-2-one]	10 nM	
Nc1nc(OC2CCOCC2)cc(N2CCC3(CC2)C[C@H](F)CC(=O)N3c2ccc(F)c(F)c2)n1 (single isomer, unassigned) [Example 116b, (S)-9-(2-amino-6-((tetrahydro-2H-pyran-4-yl)oxy)pyrimidin-4-yl)-1-(3,4-difluorophenyl)-4-fluoro-1,9-diazaspiro[5.5]undecan-2-one, or (R)-9-(2-amino-6-((tetrahydro-2H-pyran-4-yl)oxy)pyrimidin-4-yl)-1-(3,4-difluorophenyl)-4-fluoro-1,9-diazaspiro[5.5]undecan-2-one]	33 nM	
O=C1CC(F)CC2(CCN(c3cc(OCC(F)(F)F)ncn3)CC2)N1c1ccc(F)c(F)c1 (stereo not drawn) [Example 119, 1-(3,4-difluorophenyl)-4-fluoro-9-(6-(2,2,2-trifluoroethoxy)pyrimidin-4-yl)-1,9-diazaspiro[5.5]undecan-2-one]		29 nM
O=C1OCCC2(CCN(c3cc(-n4cc(C(F)(F)F)cn4)nc(CO)n3)CC2)N1c1ccc(F)c(F)c1 [Example 114, 1-(3,4-difluorophenyl)-9-(2-(hydroxymethyl)-6-(4-(trifluoromethyl)-1H-pyrazol-1-yl)pyrimidin-4-yl)-3-oxa-1,9-diazaspiro[5.5]undecan-2-one]	7 nM	
